The supplement of paper PMC10307832

compound: Cc1cc([C@@H](C)Nc2ccccc2C(=O)O)c2nc(N3CCOCC3)cc(=O)n2c1 [AZD6482] + N=C(N)NC(=N)NCCc1ccccc1 [Phenformin] (partner 250 µM); test: relative viability (nuclei count vs DMSO), 5 days (fraction); higher = more cells survive; details: first compound 8 µM
How it was run: (§1)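 Lung cancer cell lines were seeded in 1536-well plates and dosed by pin tool the next day, with either a single drug or a fixed anchor-drug dose combined with five library-drug doses (not always all listed) spaced in √10 steps. Five days later, one step fixed the cells and stained their nuclei (final 0.05% Triton X-100, 1% formaldehyde, 1 ug/ml Hoechst), and nuclei were counted on 4× images. Relative viability is the nuclei count in treated wells divided by the count in vehicle wells, and each value is the median of duplicate plates.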

In order of falling relative viability:
1. LU99A  0.813
2. NCI-H596  0.737
3. HOP-62  0.707
4. NCI-H1563  0.629
5. NCI-H1666  0.577
6. LOU-NH91  0.556
7. HCC-366  0.45
8. EMC-BAC-2  0.44
9. ChaGo-K-1  0.416
10. SK-MES-1  0.406
11. NCI-H838  0.397
12. NCI-H522  0.396
13. NCI-H2087  0.385
14. COR-L23  0.373
15. NCI-H2170  0.36
16. NCI-H2126  0.349
17. H3255  0.34
18. COR-L 105  0.299
19. NCI-H2085  0.29
20. NCI-H2405  0.274
21. NCI-H520  0.225
22. LCLC-103H  0.215
23. LK-2  0.184
24. BEN  0.182
25. HCC-44  0.167
26. A549  0.153

compound: COc1cc2nc(N3CCCN(C)CC3)nc(NC3CCN(Cc4ccccc4)CC3)c2cc1OC + N=C(N)NC(=N)NCCc1ccccc1 [Phenformin] (partner 250 µM); test: as above; details: first compound 0.2 µM
How it was run: as §1

In order of rising relative viability:
1. A549  0.185
2. HCC-44  0.252
3. BEN  0.252
4. H3255  0.332
5. LCLC-103H  0.36
6. SW 1573  0.373
7. NCI-H2170  0.402
8. NCI-H2087  0.413
9. NCI-H2405  0.425
10. COR-L23  0.456
11. COR-L 105  0.461
12. NCI-H727  0.478
13. NCI-H2126  0.493
14. NCI-H1650  0.494
15. LK-2  0.504
16. ChaGo-K-1  0.51
17. NCI-H1993  0.528
18. EMC-BAC-2  0.531
19. NCI-H1666  0.545
20. NCI-H520  0.558
21. HCC-366  0.577
22. NCI-H2342  0.597
23. NCI-H1623  0.62
24. NCI-H1563  0.638
25. LOU-NH91  0.643
26. NCI-H522  0.649
27. SK-MES-1  0.656
28. HOP-62  0.684
29. NCI-H596  0.724
30. NCI-H838  0.769
31. NCI-H2085  0.776
32. LU99A  0.846

same assay, conditions: first compound 0.6325 µM

In order of rising relative viability:
1. A549  0.165
2. BEN  0.251
3. LCLC-103H  0.344
4. H3255  0.372
5. HCC-44  0.376
6. NCI-H2170  0.407
7. NCI-H727  0.415
8. SW 1573  0.424
9. NCI-H2087  0.439
10. NCI-H1993  0.442
11. NCI-H2405  0.444
12. COR-L23  0.446
13. EMC-BAC-2  0.477
14. ChaGo-K-1  0.494
15. NCI-H2342  0.512
16. COR-L 105  0.514
17. LK-2  0.569
18. NCI-H1666  0.574
19. HCC-366  0.576
20. NCI-H2126  0.601
21. NCI-H1650  0.612
22. NCI-H1623  0.621
23. SK-MES-1  0.626
24. HOP-62  0.629
25. NCI-H522  0.68
26. NCI-H520  0.7
27. NCI-H2085  0.743
28. NCI-H1563  0.75
29. NCI-H596  0.756
30. NCI-H838  0.776
31. LOU-NH91  0.803
32. LU99A  0.827

same assay, conditions: first compound 2 µM

In order of falling relative viability:
1. NCI-H2085  0.786
2. HOP-62  0.721
3. NCI-H596  0.696
4. SK-MES-1  0.696
5. LU99A  0.691
6. NCI-H1563  0.68
7. NCI-H2342  0.649
8. HCC-366  0.613
9. NCI-H522  0.613
10. NCI-H838  0.576
11. LK-2  0.576
12. NCI-H1666  0.542
13. NCI-H2126  0.538
14. NCI-H1993  0.528
15. NCI-H1623  0.522
16. LOU-NH91  0.506
17. NCI-H520  0.499
18. EMC-BAC-2  0.496
19. COR-L23  0.494
20. ChaGo-K-1  0.492
21. NCI-H2087  0.48
22. COR-L 105  0.472
23. NCI-H727  0.447
24. NCI-H2170  0.425
25. NCI-H2405  0.421
26. NCI-H1650  0.379
27. SW 1573  0.369
28. LCLC-103H  0.367
29. H3255  0.362
30. HCC-44  0.339
31. BEN  0.229
32. A549  0.195

same assay, conditions: first compound 6.325 µM

In order of falling relative viability:
1. NCI-H2342  0.606
2. NCI-H1623  0.569
3. NCI-H838  0.502
4. NCI-H1993  0.501
5. NCI-H2126  0.472
6. NCI-H1650  0.369
7. LCLC-103H  0.36
8. NCI-H727  0.348
9. NCI-H520  0.252
10. SW 1573  0.163
